Laboratory results reported in patent publication US4016176A, “Esters of 4-hydroxy-2,9-dioxatricyclo[4.3.1.0^3,7 ] decanes and processes for their production” (Kali-Chemie Pharma GmbH, priority 1973, dated 1977).

How the values were obtained:
[1] = test system: mice; test: acute toxicity (LD50) in mice; assay type: in vivo, mouse; details: for B - lethal dose (LD50) to mice, intraperitoneally: intraperitoneal; for B - lethal dose (LD50) to mice, intraperitoneally / A - lethal dose (LD50) to mice, per os: Table 3; for relative toxicity compared with the 4-hydroxy compound (in words): 4β-esters compared with Compound No. 1246
From the text: (§1) In the Table 3 which follows are listed results of tests pertaining to the effectiveness of various compounds that are disclosed herein. The results are included in the several columns under letters whose significance is as follows:
(§2) A - lethal dose (LD50) to mice in milligrams per kilogram of body weight of the mouse when administered per os.
(§3) B - lethal dose (LD50) to mice in milligrams per kilogram of body weight of the mouse when administered intraperitoneally.
(§4) A. lethal dose (LD50) to mice in milligrams per kilogram body weight of the mouse when administered per os.
(§5) B. lethal dose (LD50) to mice in milligrams per kilogram body weight of the mouse administered intraperitoneally.
(§6) The values specified in Tables 4 and 5 hereinafter refer to milligrams per kilogram of body weight of the mouse.
(§7) Tests performed in accordance with the procedure described by Campbell and Richter in Acta Pharmacol. et Toxicol., vol. […] This is indicated by the results that are reported in Table 5 in which the headings A and F have the same significance as hereinbefore while the values in the column heading L pertain to the dose in milligrams per kilogram of body weight that was required to produce a lowering of the rectal temperature, which are values indicative of the depressant effect of a compound upon the central nervous system.

[2] = test system: mouse; test: ataxia in mice; assay type: in vivo; details: mouse; for C - ataxia: dose required to produce ataxia in a mouse: Table 3
From the text: as §1
C - ataxia: Dose in milligrams per kilogram of body weight required to produce ataxia in a mouse.

[3] = test system: mice; test: narcosis (lateral position) in mice; assay type: in vivo, mouse; details: mouse; for ED50: ip, 0.05 h, read-out: D - narcosis (lateral position): dose (ED50) which produces narcosis for 3 minutes in 50% of the mice, intraperitoneal, narcosis for 3 minutes, Table 3; for narcosis (in words): comparison of epimers
From the text: (§8) In the Table 3 which follows are listed results of tests pertaining to the effectiveness of various compounds that are disclosed herein.

[4] = test system: mouse; test: prolongation of narcosis produced by hexobarbital in mice; assay type: in vivo; details: for E - dose which prolongs narcosis produced by hexobarbital in a mouse by a factor of 4: factor of 4, Table 3; for prolongation of narcosis produced by hexobarbital (in words): comparison of epimers
From the text: as §8

[5] = test system: mouse; test: sedative effect, comparison of esters with 4-hydroxy compounds; assay type: in vivo; details: for sedative effect relative to the corresponding hydroxy compound (in words): compared with corresponding hydroxy compounds, Compound No. 1561; for sedative effect or ataxia relative to the 4-hydroxy compound (in words): 4β-esters compared with Compound No. 1246
From the text: The effectiveness of the 2,9-dioxatricyclo[4.3.1.0^3,7 ]decanes of the present invention as narcotics is obviously sterospecifically related to the 4αconfiguration. Particularly surprising is the narcotic effect of the esters as compared to the 4-hydroxy compounds. Whereas nearly 300 or even 800 milligrams per kilogram of the 4-hydroxy compounds are required to induce narcosis, the required doses of the carbamates is only at most 100 milligrams per kilogram and their toxicity is in general very low.

[6] = acute toxicity in cats, intravenous; details: cat, in vivo, read-out: lethal dose (LD50) for cats
Protocol: (§9) The toxicity and narcotic effectiveness of this compound were determined in tests with cats and dogs. […] The intravenous administration of a dose equivalent to 5 milligrams per kilogram of body weight to cats produced a narcosis that persisted for 10 minutes, whereas doses of 10 and 15 milligrams per kilogram produced narcoses that persisted for 25 and 60 minutes, respectively.

[7] = test system: cats; test: narcosis in cats, intravenous; assay type: in vivo, cat
Protocol: as §9

[8] = test system: dogs; test: narcosis in dogs, intravenous; assay type: in vivo, dog; details: Canis lupus familiaris, narcosis for 1 hour, read-out: dose required to produce a narcosis that persisted for 1 hour
Protocol: In dogs a dose of 17.5 milligrams of the compound per kilogram of body weight administered intravenously was required to produce a narcosis that persisted for 1 hour.

[9] = acute toxicity (LD50) in mice; assay type: in vivo, mouse; details: mouse, in vivo, mouse
From the text: as §1, §2, §3, §4, §5, §6, §7

[10] = test system: white mice; test: ptosis test (Campbell and Richter screening); assay type: in vivo, mouse; details: for dose producing ptosis relative to the 4-hydroxy compound (in words): compared with Compound No. 1561; for F ptosis test: mouse, Table 5
From the text: The sedative and hypnotic effectiveness of the compounds of the invention were also ascertained by screening tests with white mice described by Campbell and Richter in Acta Pharmacol. et Toxicol. 25 (1967) page 345. In Table 4 the results of various specific screening tests are listed. These tests were as follows:
as §6, §7

[11] = test system: mouse; test: lowering of the rectal temperature in mice; assay type: in vivo; details: mouse; Table 5; read-out: L dose required to produce a lowering of the rectal temperature
From the text: as §6, §7

[12] = test system: white mice; test: spasmolytic effect
[13] = narcosis, Example 17 compound; details: in vivo
[14] = acute toxicity of Example 17 compound, p.o.; details: mouse, in vivo, po
[15] = po, per os, Table 5, read-out: A lethal dose (LD50) to mice, per os
[16] = po, per os, Table 3, read-out: A - lethal dose (LD50) to mice, per os

CCNC(=O)OC1CC2C(C)C3OC(OC)C2C1(C)O3 (stereo not drawn) [Compound No. 2026, 4α-(N-Ethylcarbamyloxy)-8-methoxy-3,10-dimethyl-2,9-dioxatricyclo[4.3.1.0^3,7]decane]
B - lethal dose (LD50) to mice, intraperitoneally ([1]; mouse): 297 milligrams per kilogram of bod | A - lethal dose (LD50) to mice, per os ([1]; mouse): 518 milligrams per kilogram of bod | C - ataxia: dose required to produce ataxia in a mouse [2]: 68.1 milligrams per kilogram of bod | ED50 [3]: 100 mg/kg | E - dose which prolongs narcosis produced by hexobarbital in a mouse by a factor of 4 [4]: 31.6 milligrams per kilogram of bod | sedative effect relative to the corresponding hydroxy compound (in words) [5]: greater sedative effect than the corresponding hydroxy compounds

COC1OC2OC3(C)C(OC(=O)NC(C)C)CC(C2C)C13 (stereo not drawn) [Compound No. 2057, 4β-(N-Isopropylcarbamyloxy)-3,10-dimethyl-8-methoxy-2,9-dioxatricyclo[4.3.1.0^3,7]decane]
relative toxicity compared with the 4-hydroxy compound (in words) [1]: reduction in the relative toxicity | B - lethal dose (LD50) to mice, intraperitoneally ([1]; mouse): 1000 milligrams per kilogram of bod | A - lethal dose (LD50) to mice, per os ([1]; mouse): > 1470 milligrams per kilogram of bod | dose required for producing ataxia [2]: 147 milligrams per kilogram of body weight | C - ataxia: dose required to produce ataxia in a mouse [2]: 147 milligrams per kilogram of bod | narcosis (in words) [3]: produces neither a narcosis nor a prolongation of narcosis produced by hexobarbital | prolongation of narcosis produced by hexobarbital (in words) [4]: produces neither a narcosis nor a prolongation of narcosis produced by hexobarbital | sedative effect or ataxia relative to the 4-hydroxy compound (in words) [5]: distinct increase in the sedative effect or ataxia

C=C1C2OC(OC)C3C1CC(OC(=O)NCC)C3(C)O2 (stereo not drawn) [Compound No. 2076, 4α-(N-Ethylcarbamyloxy)-8-methoxy-3-methyl-10-methylene-2,9-dioxatricyclo[4.3.1.0^3,7]decane]
B - lethal dose (LD50) to mice, intraperitoneally ([1]; mouse): 527 milligrams per kilogram of bod | A - lethal dose (LD50) to mice, per os ([1]; mouse): 1025 milligrams per kilogram of bod | toxicity of the epimers (in words) ([1]; mouse, 2067 versus 2076): substantially the same toxicity | doses effective in producing ataxia (in words) ([2]; 2067 versus 2076): identical doses are effective in producing ataxia | C - ataxia: dose required to produce ataxia in a mouse [2]: 50 milligrams per kilogram of bod | ED50 [3]: < 100 mg/kg | narcosis (in words) [3]: produces narcosis | prolongation of narcosis produced by hexobarbital (in words) [4]: does not prolong narcosis produced by hexobarbital | LD50 [6]: 226 mg/kg | duration of narcosis ([7]; 5 mg/kg): 10 min | duration of narcosis ([7]; 10 mg/kg): 25 min | duration of narcosis ([7]; 15 mg/kg): 60 min | minimal effective dose [8]: 17.5 mg/kg

COC1OC2OC3(C)C(OC(C)=O)CC(C2C)C13 (stereo not drawn) [Compound No. 2080, 4α-Acetoxy-8-methoxy-3,10-dimethyl-2,9-dioxatricyclo[4.3.1.0^3,7]decane]
LD50 [9, 15]: 1470 mg/kg | B - lethal dose (LD50) to mice, intraperitoneally ([1]; mouse): > 1000 milligrams per kilogram of bod | A - lethal dose (LD50) to mice, per os ([1]; mouse): > 1470 milligrams per kilogram of bod | C - ataxia: dose required to produce ataxia in a mouse [2]: 50 milligrams per kilogram of bod | dose producing ptosis relative to the 4-hydroxy compound (in words) [10]: one-fourth or one-half of the dose required of the 4-hydroxy-compound | F ptosis test [10]: 100 milligrams per kilogram of bod | minimal effective dose [11]: 400 mg/kg | sedative effect relative to the corresponding hydroxy compound (in words) [5]: greater sedative effect than the corresponding hydroxy compounds

COC1OC2OC3(C)C(OC(=O)Nc4ccccc4)CC(C2C)C13 (stereo not drawn) [Example 17, 4β-(N-Phenylcarbamyloxy)-8-methoxy-3,10-dimethyl-2,9-dioxatricyclo[4.3.1.0^3,7]decane]
spasmolytic ED50 relative to the ED100 of atropine ([12]; % of the ED100 of atropine): 0.2% | spasmolytic ED50 relative to the ED100 of papaverine ([12]; % of the ED100 of papaverine): 0.1% | narcosis (in words) [13]: did not produce narcosis | LD50 [14]: 1500 mg/kg

CCNC(=O)OC1CC2C(C)C3OC(OC)C2C1(C)O3 (stereo not shown) [compound 1767]
relative toxicity compared with the 4-hydroxy compound (in words) [1]: reduction in the relative toxicity | B - lethal dose (LD50) to mice, intraperitoneally ([1]; mouse): 890 milligrams per kilogram of bod | A - lethal dose (LD50) to mice, per os ([1]; mouse): > 1500 milligrams per kilogram of bod | C - ataxia: dose required to produce ataxia in a mouse [2]: 400 milligrams per kilogram of bod | sedative effect or ataxia relative to the 4-hydroxy compound (in words) [5]: distinct increase in the sedative effect or ataxia

CCC(=O)OC1CC2C(C)C3OC(OC)C2C1(C)O3 (stereo not shown) [compound 2044]
LD50 [9, 16]: 1470 mg/kg | relative toxicity compared with the 4-hydroxy compound (in words) [1]: reduction in the relative toxicity | B - lethal dose (LD50) to mice, intraperitoneally ([1]; mouse): 436 milligrams per kilogram of bod | C - ataxia: dose required to produce ataxia in a mouse [2]: 147 milligrams per kilogram of bod | sedative effect or ataxia relative to the 4-hydroxy compound (in words) [5]: distinct increase in the sedative effect or ataxia

COC1OC2OC3(C)C(OC(C)=O)CC(C2C)C13 (stereo not shown) [compound 2045]
LD50 ([9]; ip, intraperitoneal, Table 3, read-out: B - lethal dose (LD50) to mice, intraperitoneally): 1000 mg/kg | LD50 [9, 16]: 1470 mg/kg | relative toxicity compared with the 4-hydroxy compound (in words) [1]: reduction in the relative toxicity | C - ataxia: dose required to produce ataxia in a mouse [2]: 200 milligrams per kilogram of bod | E - dose which prolongs narcosis produced by hexobarbital in a mouse by a factor of 4 [4]: 316 milligrams per kilogram of bod | sedative effect or ataxia relative to the 4-hydroxy compound (in words) [5]: distinct increase in the sedative effect or ataxia

CCC(=O)OC1CC2C(C)C3OC(OC)C2C1(C)O3 (stereo not shown) [compound 2081]
LD50 [9, 15]: > 1470 mg/kg | B - lethal dose (LD50) to mice, intraperitoneally ([1]; mouse): 1379 milligrams per kilogram of bod | A - lethal dose (LD50) to mice, per os ([1]; mouse): > 1470 milligrams per kilogram of bod | C - ataxia: dose required to produce ataxia in a mouse [2]: 50 milligrams per kilogram of bod | E - dose which prolongs narcosis produced by hexobarbital in a mouse by a factor of 4 [4]: 316 milligrams per kilogram of bod | dose producing ptosis relative to the 4-hydroxy compound (in words) [10]: one-fourth or one-half of the dose required of the 4-hydroxy-compound | F ptosis test [10]: 200 milligrams per kilogram of bod | minimal effective dose [11]: 100 mg/kg | sedative effect relative to the corresponding hydroxy compound (in words) [5]: greater sedative effect than the corresponding hydroxy compounds
